Here are results for 51 compounds from PubChem BioAssay AID1996.

≈ marks a conversion by molar mass, not a printed value.

The conditions of this data set: buffer; pH 7.4; 200.0 µM.
`O=C(Cc1ccccc1Cl)N1CCOCC1`: the solubility (kinetic) (in general, the concentration staying in solution when a stock, usually in DMSO, is diluted into the medium) is greater than 36 µg/mL.

The compound `COc1ccccc1CNS(=O)(=O)c1ccc(Cl)s1` gave a kinetic solubility greater than 47.7 µg/mL. The result for `Cc1cccc(C(=O)OCC(=O)NC(C)CCc2ccccc2)c1O` (stereo unspecified) reads less than 0.7 µg/mL; that for `Cc1ccccc1C(=O)Nc1nc(-c2cccnc2)cs1`, 3.9 µg/mL (≈ 13.2 µM). The value for `Cc1cc(C)c2[nH]c(C(=O)Nc3ccc(F)cc3Br)cc2c1` was 4.2 µg/mL (≈ 11.6 µM); that for `CC(C)NC(=O)C1=NN(c2ccccc2)C(=O)CC1` was greater than 38.9 µg/mL. The value for `Cc1ccc(NC(=O)C(=O)NCCCN2CCCC2=O)c(C)c1` was greater than 47.6 µg/mL. `O=C(NCCNc1ccc([N+](=O)[O-])cc1Cl)c1ccccc1F`: the solubility (kinetic) was 1.8 µg/mL (≈ 5.33 µM).

`CC(=O)c1ccc(NC(=O)CNC2CCCCC2)cc1.Cl` had a solubility (kinetic) of 38.4 µg/mL. The compound `COc1ccc(NC(=S)N2CCCC2)cc1OC` had a solubility (kinetic) greater than 40 µg/mL. The value for `Nc1cc(S(=O)(=O)N2CCOCC2)ccc1N1CCOCC1` was greater than 49.1 µg/mL; that for `Cc1ccc2c(c1)=C(c1ccccc1)N(O)CC(=O)N=2` was greater than 39.9 µg/mL; that for `Cc1csc(SC(C)C(=O)Nc2ccc(F)cc2Cl)n1` (stereo unspecified) was 44.9 µg/mL (≈ 136 µM). The result for `O=C(CNC(=O)c1ccccc1)OCC(=O)c1cccs1` reads greater than 45.5 µg/mL; that for `CC(NC(=O)COc1cccnc1[N+](=O)[O-])c1ccc(Cl)cc1` (stereo unspecified), greater than 50.4 µg/mL; that for `O=C(CNC(=O)c1ccco1)Nc1ccc(OC(F)F)cc1`, greater than 46.5 µg/mL.

`Cc1c(C(=O)O)cc(-c2ccccc2)n1Cc1ccccc1`: the kinetic solubility is greater than 43.7 µg/mL. The result for `CCn1cc([N+](=O)[O-])c(C(=O)N2CCCc3ccccc32)n1` reads greater than 45 µg/mL.

As to `O=C(NCCN1CCOCC1)c1cc([N+](=O)[O-])cc([N+](=O)[O-])c1`, the solubility (kinetic) was greater than 48.6 µg/mL. With `CCOC(=O)C(=CNc1nc2ccc(C(=O)OCC)cc2s1)C(=O)OCC`, the solubility (kinetic) is less than 0.4 µg/mL.

Compound `COP(=O)(OC)C(Nc1ccc([N+](=O)[O-])cc1)c1ccccc1` (stereo unspecified) had a kinetic solubility greater than 50.4 µg/mL. Take `COc1ccc(NC(=S)NCc2ccc(Cl)cc2)c(OC)c1`: the solubility (kinetic) amounted to 28.3 µg/mL (≈ 84 µM). On to `OC1/C(=C/c2ccc(Cl)cc2Cl)N2CCC1CC2` (stereo unspecified), for which the solubility (kinetic) worked out at 28 µg/mL (≈ 98.5 µM). The result for `CC(C)(C)c1ccc(CCC2OCC(C[N+]3(C)CCOCC3)O2)cc1.[I-]` (stereo unspecified) reads greater than 71.3 µg/mL; that for `COc1ccc(CNc2ncnc3sccc23)cc1OC`, 20.2 µg/mL (≈ 67 µM). Take `COc1cccc(C=N[C@@H](CO)[C@@H](O)c2ccc([N+](=O)[O-])cc2)c1O`: the kinetic solubility amounted to 50.6 µg/mL (≈ 146 µM).

`COC(=O)c1cc(=O)c2cccc(OC)c2[nH]1` returned a solubility (kinetic) greater than 35 µg/mL. `CN(C)CCCN(C(=O)c1ccco1)c1nc2ccc(F)cc2s1.Cl` displayed a kinetic solubility of 55 µg/mL. For `C=CCN1CN(CCc2ccccc2)CNC1=S`, the kinetic solubility is greater than 39.2 µg/mL. The value for `CCOCCn1c(CC)nc2ccccc21` was greater than 32.7 µg/mL. The value for `CCOc1ccc(C(=O)N2CCN(c3cccc(Cl)c3)CC2)cc1` was 14.3 µg/mL (≈ 41.5 µM); that for `COc1ccc(C(CC(=O)O)N2Cc3ccccc3C2=O)cc1` (stereo unspecified) was greater than 46.7 µg/mL; that for `CCC(C)c1ccc(C(C)NC(=S)NCc2ccc(F)cc2)cc1` (stereo unspecified) was less than 0.4 µg/mL. On to `OCCN(CC#CC(O)(c1ccccc1)c1ccccc1)CCO`, for which the solubility (kinetic) is greater than 48.8 µg/mL.

Turning to `COc1c(N2CCN[C@H](C)C2)c(F)cc2c(=O)c(C(=O)O)cn(C3CC3)c12`, the solubility (kinetic) is 38.6 µg/mL (≈ 103 µM). The result for `CC1CCCC(NC(=O)COC(=O)Cc2ccc(Cl)cc2)C1C` (stereo unspecified) reads 27.3 µg/mL (≈ 80.8 µM); that for `CN1CCN(Cc2ccc3ccccc3c2)CC1`, 20.6 µg/mL (≈ 85.7 µM); that for `O=Cc1c(NCc2cccc(F)c2)c2ccccc2[nH]c1=O`, 19.8 µg/mL (≈ 66.8 µM). The result for `Oc1ccc2ccccc2c1CN1CCN(C/C=C/c2ccccc2)CC1` reads 10.1 µg/mL (≈ 28.2 µM); that for `N#CCCOC1(C#CCN2CCCC2)CCCCC1`, 32.2 µg/mL (≈ 124 µM); that for `CC(=O)c1cc2c(cc1NC(=O)C1CN(C(C)=O)c3ccccc3O1)OCO2` (stereo unspecified), 6.3 µg/mL (≈ 16.5 µM). `COc1ccccc1Nc1nc(NCCC(C)C)nc(N)c1[N+](=O)[O-]`: the kinetic solubility is less than 0.1 µg/mL. The result for `Cl.Nc1ncnc2sc3c(c12)CCNC3` reads greater than 36.4 µg/mL; that for `COc1ccc(CCCC(=O)NCCc2ccccc2)cc1`, 35.2 µg/mL (≈ 118 µM).

With `O=C(c1ccco1)N1CCN(C(=O)c2ccc(-c3ccc([N+](=O)[O-])cc3)o2)CC1`, the solubility (kinetic) was 44.1 µg/mL (≈ 112 µM). `Cc1ncc(CN2CCN(C3CCCC3)C(CCO)C2)s1` (stereo unspecified) showed a kinetic solubility of 36 µg/mL (≈ 116 µM). The value for `CC(C)C(=O)NS(=O)(=O)c1ccc(NS(C)(=O)=O)cc1` was greater than 48.1 µg/mL; that for `Cc1ccc(/C(O)=C/c2nc3ccccc3oc2=O)cc1` was 22.5 µg/mL (≈ 80.6 µM); that for `COc1ccc([N+](=O)[O-])cc1NS(=O)(=O)c1cccc(C(=O)OC2CCOC2=O)c1` (stereo unspecified) was greater than 65.5 µg/mL.

The compound `O=c1c2ccccc2nc(/C=C/c2cc(Br)ccc2O)n1CCO` showed a solubility (kinetic) of 6.1 µg/mL (≈ 15.8 µM). As for `COc1ccc2cc(CCNC(=O)CCc3ccccc3)c(=O)[nH]c2c1`, the kinetic solubility amounted to 4.8 µg/mL (≈ 13.7 µM).
